From US7371877B2, “Glycerol ester derivative” (FUJIFILM Corporation, priority 2002, dated 2008)

What was measured:
[1] = test system: ICR male mice; assay: Toxicity test by continuous administration for three days in mice (MTD); type: in vivo
Description: Six-week old ICR male mice (Charles River Japan) were purchased, and after quarantine for 1 week, acclimatized in a clean animal cage (air-conditioning: HEPA filter of class 1000, room temperature: 20 to 24° C., humidity: 35 to 60%). Then, in order to obtain an MTD value, a liposome preparation was administered from the caudal vein. The liposome preparation was administered by using physiological saline (Hikari Pharmaceutical) or a glucose solution (Otsuka Pharmaceutical) as a solvent. On the basis of the MTD value obtained, the liposome preparation was administered from the caudal vein every three consecutive days in an amount corresponding to ½ of the MTD value (n=3). The symptoms were observed up to 6 hours after each administration, and autopsy was performed after completion of the administration to examine major organs. As a result, no abnormality was recognized. […]

[2] = S9 degradation test; type: in vitro ADME, rats; details: rat liver S9 Mix, 5 μg/ml, 37° C., HPLC
Description: Six-week old male SD rats (Charles River Japan) were purchased and acclimatized for 1 week. After the acclimatization for 1 week, the rats were weighed and bled by decapitation. The liver was extracted and washed three times with chilled 0.15 M KCl. After the washing, wet weight of the liver was determined, and the liver was added with the three-times weight of chilled 0.15 M KCl and placed in a homogenizer. The liver was homogenized, and the homogenate was centrifuged with cooling at 9000 g for 10 minutes. The supernatant obtained was designated S9 and stored below −80° C.
The stored S9 was thawed in running water. The thawed S9 (0.1 ml) was added with 0.4 M MgCl2 (0.02 ml), 1.65 M KCl (0.02 ml) and 0.2 M Na phosphate buffer (pH 7.4, 0.5 ml), added with glucose-6-phosphate (Oriental Yeast), NADPH (Oriental Yeast) and NADH (Oriental Yeast) so as to give a concentration of 4 μM, and added with distilled water to give a total volume of 1 ml (this solution is referred to as “S9 Mix”). S9 Mix (0.1 ml) was added with a test substance so as to give a concentration of 5 μg/ml and shaken at 37° C. under reciprocal movement. The weight of the test substance (unchanged substance) with passage of time in the S9 Mix was measured by HPLC. The test substance was dissolved in dimethyl sulfoxide (Wako Pure Chemical Industry) beforehand. The results are shown as percentage values of the amount of the unchanged substance after 30 minutes based on the amount of the unchanged substance immediately after the addition to S9 Mix, which is taken as 100%. […]

[3] = test system: Wistar rats; assay: Neurotoxicity test in Wistar rats; type: in vivo; design: key to Neurotoxicity (+: present, −: absent): +: present; −: absent
Description: Six-week old male Wistar rats (Charles River Japan) were purchased, and after quarantine for 1 week, acclimatized in a clean animal cage (air-conditioning: HEPA filter of class 1000, room temperature: 20 to 24° C., humidity: 35 to 60%). […]. The liposome preparation was administered by using physiological saline (Hikari Pharmaceutical) or a glucose solution (Otsuka Pharmaceutical) as a solvent.
In the same manner as in Test Example 4, the neurotoxicity test using a Wistar rat was performed.

[4] = test system: arteriosclerotic lesions in rat aortas; assay: X-ray radiography of rat arteriosclerotic lesion; type: in vivo; details: liposome preparation, 200 mg/kg from the cervical vein
Description: According to the method described in Invest. Radiol., 18, 275 (1985), arteriosclerotic lesions were formed in rat aortas. The liposome preparation of 1A-4-1 prepared above was carefully administered to the rats with the formed arteriosclerotic lesions were formed from the cervical vein in an amount of 200 mg/kg.
In the same manner as in Test Example 2, the liposome preparation of 1B-1-3 prepared above was carefully administered from the cervical vein to the rats with the formed arteriosclerotic lesions in an amount of 200 mg/kg.

[5] = test system: vascular smooth muscle cells; assay: Uptake amount of iodine atoms by vascular smooth muscle cells (mixed culture with macrophage); type: cell-based; details: liposome PC 50 nmol + PS 50 nmol + compound 75 nmol; cultured at 37° C. under 5% CO2 for 24 hours
Description: Dipalmitoyl-PC (Funakoshi, No. 1201-41-0225) and dipalmitoyl-PS (Funakoshi, No. 1201-42-0237) at the ratio shown below were dissolved in chloroform together with each of the iodine compounds of the present invention in an eggplant-shaped flask according to the method described in J. Med. Chem., 25 (12), 1500 (1982) to form a uniform solution. Then, the solvent was evaporated under reduced pressure to form a thin membrane on the bottom of the flask bottom. This thin membrane was dried in vacuum, then added with an appropriate amount of 0.9% physiological saline (Hikari Pharmaceutical, No. 512) and subjected to ultrasonication (No. 3542 probe type oscillator, Branson, 0.1 mW) for 5 minutes to obtain a uniform liposome dispersion. The diameters of the liposomes in the resulting dispersion were measured by using WBC analyzer (A-1042, Nihon Kohden). […] The liposome preparations mentioned below, which were produced by the above method, were each added to a mixed culture system of vascular smooth muscle cells and macrophage described in International Publication WO 01/82977. The cells were cultured at 37° C. under 5% CO2 for 24 hours, and the amounts of the iodine compounds taken up into the vascular smooth muscle cells were each quantified.
In the same manner as in Test Example 1, liposome preparations containing dipalmitoyl-PC (Funakoshi, No. 1201-41-0225) and dipalmitoyl-PS (Funakoshi, No. 1201-42-0237) at the ratio shown below were prepared. […] The liposome preparations produced by the above method were each added to a mixed culture system of vascular smooth muscle cells and macrophage described in International Publication WO 01/82977. The cells were cultured at 37° C. under 5% CO2 for 24 hours, and the amounts of the iodine compounds taken up into the vascular smooth muscle cells were each quantified.

[6] = J. Med. Chem., 25, 1500 (1982); cited from earlier work
[7] = liposome preparation from the caudal vein, 1/2 of the MTD value, after pentobarbital, observed up to 4 hours
[8] = liposome preparation administered from the caudal vein, ICR male mice

With `O=C(O)CCC(=O)OC(COC(=O)CCCCCCCCCCOc1c(I)cc(I)cc1I)COC(=O)CCCCCCCCCCOc1c(I)cc(I)cc1I` [Compound 1A-4-4] the MTD ([1]; mouse, in vivo) was 800 mg/kg, the “amount of the unchanged substance after 30 minutes based on the amount immediately after the addition to S9 Mix (100%)” value (shortened to “amount of the unchanged substance … (100%)”) [2] was 1A-4-4: 24% and the “Neurotoxicity (+: present, −: absent)” value [3, 7] was “(−)”.

For `CN(C)C(=O)CCC(=O)OC(COC(=O)CCCCCCCCCCOc1c(I)cc(I)cc1I)COC(=O)CCCCCCCCCCOc1c(I)cc(I)cc1I` [Compound 1A-4-3], the “amount of the unchanged substance … (100%)” value [2] was 1A-4-3: 5%.

In the case of `O=C(CCCCCCCCCCOc1c(I)cc(I)cc1I)OCC(COC(=O)CCCCCCCCCCOc1c(I)cc(I)cc1I)OC(=O)CCCN1CCOCC1` [Compound 1A-3-2], the MTD [1, 8] is reported as 800 mg/kg and the “amount of the unchanged substance … (100%)” value [2] is reported as 1A-3-2: 60%.

For `O=C(CCCCCCCCCCOc1c(I)cc(I)cc1I)OCC(COC(=O)CCCCCCCCCCOc1c(I)cc(I)cc1I)OCC(=O)N1CCOCC1` [Compound 1A-5-1], the MTD [1, 8] was 800 mg/kg, the “amount of the unchanged substance … (100%)” value [2] was 1A-5-1: 9% and the “Neurotoxicity (+: present, −: absent)” value ([3]; rat, in vivo) was “(−)”.

With `O=C(CCCCCCCCCCOc1c(I)cc(I)cc1I)OCC(COC(=O)CCCCCCCCCCOc1c(I)cc(I)cc1I)OC(=O)CCC(=O)N1CCOCC1` [Compound 1A-4-1] the MTD [1, 8] was 1000 mg/kg, the “amount of the unchanged substance … (100%)” value [2] was 1A-4-1: 59% and the “Neurotoxicity (+: present, −: absent)” value ([3]; rat, in vivo) was “(−)”. For the same molecule, the “X-ray radiography images of arteriosclerotic lesions” value ([4]; ten minutes after the administration) was “clearly contrasted images of the arteriosclerotic lesions were obtained” and the Uptake amount [5] was 31.4 × 10^−3 nmol/μg protein.

In the case of `O=C(CCCCCCCCCCOc1c(I)cc(I)cc1I)OCC(COC(=O)CCCCCCCCCCOc1c(I)cc(I)cc1I)OC(=O)CN1CCOCC1` [Compound 1A-1-3], the MTD [1, 8] is reported as 800 mg/kg, the “amount of the unchanged substance … (100%)” value [2] is reported as 1A-1-3: 63% and the “Neurotoxicity (+: present, −: absent)” value ([3]; rat, in vivo) is reported as “(−)”. The Uptake amount [5] was 49.8 × 10^−3 nmol/μg protein.

For `CCOCCOCCOCCOC(COC(=O)CCCCCCCCCCOc1c(I)cc(I)cc1I)COC(=O)CCCCCCCCCCOc1c(I)cc(I)cc1I` [Compound 1A-7-3], the “amount of the unchanged substance … (100%)” value [2] was 1A-7-3: 5% and the Uptake amount [5] was 41.8 × 10^−3 nmol/μg protein.

In the case of `CN(C)C(=O)COC(COC(=O)CCCCCCCCCCOc1c(I)cc(I)cc1I)COC(=O)CCCCCCCCCCOc1c(I)cc(I)cc1I` [Compound 1A-5-3], the “amount of the unchanged substance … (100%)” value [2] is reported as 1A-5-3: 52%.

For `CCC(Cc1c(I)cc(I)c(N)c1I)C(=O)OC1CCC2(C)C(=CCC3C2CCC2(C)C(C(C)CCCC(C)C)CCC32)C1` (stereo not shown) [Cholesterol iopanoate], the “Accumulation in the liver” value [6] is listed as “known to accumulate in the liver of a living body”.

In the case of `O=C(CCCCCCCCCCOc1c(I)cc(I)cc1I)OCC(COC(=O)CCCCCCCCCCOc1c(I)cc(I)cc1I)OCCO` [Compound 1A-7-5], the “amount of the unchanged substance … (100%)” value [2] is reported as 1A-7-5: 11% and the Uptake amount [5] is reported as 36.1 × 10^−3 nmol/μg protein.

For `NC(=O)COC(COC(=O)CCCCCCCCCCOc1c(I)cc(I)cc1I)COC(=O)CCCCCCCCCCOc1c(I)cc(I)cc1I` [Compound 1A-5-2], the “amount of the unchanged substance … (100%)” value [2] was 1A-5-2: 60%.

With `CCOCCOCCOCCOC(=O)CCC(=O)OC(COC(=O)CCCCCCCCCCOc1c(I)cc(I)cc1I)COC(=O)CCCCCCCCCCOc1c(I)cc(I)cc1I` [Compound 1A-4-5] the MTD ([1]; mouse, in vivo) was 800 mg/kg, the “amount of the unchanged substance … (100%)” value [2] was 1A-4-5: 38% and the “Neurotoxicity (+: present, −: absent)” value [3, 7] was “(−)”.

With `O=C(O)COC(COC(=O)CCCCCCCCCCOc1c(I)cc(I)cc1I)COC(=O)CCCCCCCCCCOc1c(I)cc(I)cc1I` [Compound 1A-5-4] the MTD ([1]; mouse, in vivo) was 800 mg/kg, the “amount of the unchanged substance … (100%)” value [2] was 1A-5-4: 20% and the “Neurotoxicity (+: present, −: absent)” value [3, 7] was “(−)”.

With `CN(C)CC(=O)OC(COC(=O)CCCCCCCCCCOc1c(I)cc(I)cc1I)COC(=O)CCCCCCCCCCOc1c(I)cc(I)cc1I` [Compound 1A-6-3] the “amount of the unchanged substance … (100%)” value [2] was 1A-6-3: 60%.

With `NC(=O)CCC(=O)OC(COC(=O)CCCCCCCCCCOc1c(I)cc(I)cc1I)COC(=O)CCCCCCCCCCOc1c(I)cc(I)cc1I` [Compound 1A-4-2] the “amount of the unchanged substance … (100%)” value [2] was 1A-4-2: 10%.

For `O=C(CCCCCCCCCCOc1c(I)cc(I)cc1I)OCC(COC(=O)CCCCCCCCCCOc1c(I)cc(I)cc1I)OC(=O)CCN1CCOCC1` [Compound 1A-3-1], the “amount of the unchanged substance … (100%)” value [2] was 1A-3-1: 58%.

In the case of `O=C(CCCCCCCCCCOc1c(I)cc(I)cc1I)OCC(COC(=O)CCCCCCCCCCOc1c(I)cc(I)cc1I)OC(=O)COC(CO)CO` [Compound 1A-6-9], the MTD [1, 8] is reported as 800 mg/kg and the “amount of the unchanged substance … (100%)” value [2] is reported as 1A-6-9: 13%.

For `O=C(CCCCCCCCCCOc1c(I)cc(I)cc1I)OCC(COC(=O)CCCCCCCCCCOc1c(I)cc(I)cc1I)OC(=O)CCCCCN1CCOCC1` [Compound 1A-3-4], the MTD [1, 8] was 1000 mg/kg and the “amount of the unchanged substance … (100%)” value [2] was 1A-3-4: 63%.

With `C[N+](C)(C)CCOP(=O)([O-])OC(COC(=O)CCCCCCCCCCOc1c(I)cc(I)cc1I)COC(=O)CCCCCCCCCCOc1c(I)cc(I)cc1I` [Compound 1B-1-3] the MTD [1, 8] was 2000 mg/kg, the “amount of the unchanged substance … (100%)” value [2] was 1B-1-3: 4% and the Neurotoxicity ([3]; rat, in vivo) was “no neurotoxicity was observed”. For the same molecule, the “X-ray radiography images of arteriosclerotic lesions” value ([4]; one minute after the administration) was “clearly contrasted images of arteriosclerotic lesions were obtained” and the Uptake amount [5] was 59.8 × 10^−3 nmol/μg protein.

In the case of `O=C(CCCCCCCCCCOc1c(I)cc(I)cc1I)OCC(COC(=O)CCCCCCCCCCOc1c(I)cc(I)cc1I)OC(=O)CCCCN1CCOCC1` [Compound 1A-3-3], the MTD [1, 8] is reported as 1000 mg/kg, the “amount of the unchanged substance … (100%)” value [2] is reported as 1A-3-3: 64% and the “Neurotoxicity (+: present, −: absent)” value ([3]; rat, in vivo) is reported as “(−)”.
